# Test results: patent publication US20240391958A1, “KEANUMYCINS AND USES THEREOF IN MEDICINE AND PLANT PROTECTION” (Leibniz-Institut für Naturstoff-Forschung und …, priority 2023, published 2024)
# Where a SMILES comes first, the peptide text is derived from it. Bridges are numbered along the chain shown (N, C = ends). [ ]: non-standard residue; d: D form. The star is where a group is joined. X1 = CCCCCCCCCCCC[C@@H](O)[C@@H](O)CC(=O)*; Asp(3S-OH) = N[C@H](C(=O)O)[C@H](O)C(=O)O; Thr(4-Cl) = N[C@H](C(=O)O)[C@H](O)CCl; aThr = C[C@H](O)[C@H](N)C(=O)O; d(hSer) = N[C@H](CCO)C(=O)O; dDab = NCC[C@@H](N)C(=O)O; Dab = NCC[C@H](N)C(=O)O; Dhb = C/C=C(\N)C(=O)O
# Tested on: C. albicans
# Assay: Fungal viability in vaginal epithelial infection model (XTT)
# Assay type: cell-based, Candida albicans
# Conditions: XTT absorbance after 24-hour infection, N=2
# Protocol: FIGS. 7A-7B show in 7A) Keanumycin A protected human vaginal epithelial cells in C. albicans infection model. Micrograph depicts % damage to human vaginal epithelial cells A431 (y-axis) in the presence of keanumycin A at varied concentrations (x-axis) as estimated by LDH cytotoxicity assay after 24 hours of infection or treatment. LDH absorbance was normalized to C. albicans infected and uninfected controls. Keanumycin A protected vaginal cells from damage by C. albicans at a narrow concentration range from 4-8 μg/ml (black line). Keanumycin A was toxic to vaginal cells at concentrations above 8 μg/ml (grey line) (N=3). […] Vaginal epithelial cells were lysed after 24-hour infection, and fungal viability was measured by XTT absorbance, normalized to C. albicans infected and uninfected controls (N=2) […]
# Overnight culture of C. albicans strain SC5314 grown in YPD at 30° C., shaking at 180 RPM was harvested, washed twice with PBS. […] Epithelial damage was measured 24 hours after infection by collecting and diluting the supernatant 1:10 in PBS and measuring the lactate dehydrogenase (LDH) activity with the Roche Cytotoxicity Detection Kit (LDH) as per manufacturer's instructions. The absorbance (490 nm) values are represented as percentage damage, which is normalized to the low control, where medium only is 0% damage, and high control, where C. albicans infection is 100% damage. […]
smiles,measurement,value
"C/C=C1\NC(=O)[C@H]([C@H](C)O)NC(=O)[C@H](CCN)NC(=O)[C@@H](CCO)NC(=O)CNC(=O)[C@@H](CCN)NC(=O)[C@@H](NC(=O)C[C@H](O)[C@H](O)CCCCCCCCCCCC)COC(=O)[C@H]([C@H](O)CCl)NC(=O)[C@H]([C@H](O)C(=O)O)NC1=O [Keanumycin A, keanumycin A] (X1-S[dDab]G[d(hSer)][Dab][aThr][Dhb][Asp(3S-OH)][Thr(4-Cl)]; ester 1-C)",% fungal viability of C. albicans in infection model,reduced C. albicans viability
